Earlier results in patent US20260216230A1, “SERRATIA ANTICANCER POLYSACCHARIDE COMPOSITIONS AND METHODS” (Board of Supervisors of Louisiana State University and …, priority 2023, published 2026).

System: refractory Stage 4 patients
Settings: phase I

Structure (SMILES): CC(=O)O[C@H]1C(=O)[C@@]2(C)[C@H]([C@H](OC(=O)c3ccccc3)[C@]3(O)C[C@H](OC(=O)[C@H](O)[C@@H](NC(=O)c4ccccc4)c4ccccc4)C(C)=C1C3(C)C)[C@]1(OC(C)=O)CO[C@@H]1C[C@@H]2O [Taxol]
- effectivity: 12%
